Laboratory results from patent US10898548B2, “Modulators of protein tyrosine phosphatase and uses thereof” (LEUVAS THERAPEUTICS, priority 2015, dated 2021).

Assays:
[1] = tested on: human primary monocytes; experiment: underflow adhesion of monocytes on E-selectin/ICAM-1 (BioFlux); type: cell-based; conditions: for arrest 1 sec, flow assay / arrest 10 sec, flow assay / rolling cells, flow assay: Table 3, concentration not given; for arrest 1 sec, flow assay: CTRL 24; for rolling cells, flow assay: CTRL 50
Protocol: Flow-adhesion assays were also performed to test the ability of the P1-WD peptide to inhibit adhesion of human monocytes under flow conditions. Briefly, Human primary monocytes were suspended at 1×10^6/ml in standard adhesion. Cell behavior in underflow conditions was analyzed with the BioFlux 200 system (Fluxion Biosciences). 48-well plate microfluidics were first co-coated overnight at room temperature with 2.5 μg/ml human E-selectin and 5 μg/ml human ICAM-1 in PBS. Immediately before use, microfluidic channels were washed with PBS and then coated with 10 nM fMLP in PBS for 3 h at room temperature. After extensive washing of microfluidics with adhesion buffer, cells were fluxed at 2 dyne/cm^2 wall shear stress and the behavior of interacting cells was digitally recorded with a fast CCD videocamera (25 frames/s). Single areas of 0.2 mm^2 were recorded for at least 120 s. Interactions of 40 ms or longer were considered significant and scored. Cells that remained firmly adherent for at least 1 s were considered fully arrested. Cells arrested for at least 1 s and then detached, or for 10 s and then remained adherent, were scored separately and plotted as independent groups. Interacting cells behaviors were automatically quantified with BeQuanti.
Briefly, human monocytes were treated with buffer (CTRL), 50 μM TAT peptides, or 0.5 μM TAT-ICD for 1 hour at 37° C. Data are percentages of rolling and arrested cells for the indicated times over total interacting cells; mean values of 4 experiments.
Briefly, Human monocytes were treated with buffer (CTRL=control), 100 μM AG490, 40 μM P1 or P1-TKIP peptides or 200 μM WHI-P154 for 1 hour at 37° C. Shown are percentages of rolling and arrested cells for the indicated times over total interacting cells; mean values of 5 experiments; errors bars are SDs.

[2] = tested on: human primary monocytes; experiment: static adhesion of fMLP-stimulated monocytes to ICAM-1; type: cell-based; conditions: CTRL 100; for fMLP-triggered static adhesion to ICAM-1: monocytes; for fMLP-induced adhesion to ICAM-1: 40 μM P1 or P1-TKIP, 100 μM AG490, 200 μM WHI-P154, 1 hour, 50 nM fMLP 60 sec
Protocol: We investigated the functional effect of PTPRG activation on integrin activation and mediated adhesion by chemoattractants in human primary monocytes and PMNs in a static and flow adhesion assays. Briefly, human primary monocytes or polymorphonuclear cells were suspended at 5×10^6/ml in standard adhesion buffer. Adhesion assays were performed on 18-well glass slides coated with 1 mg/ml human fibrinogen or with 1 μg/ml human ICAM-1 in PBS; 20 μl of cell suspension were added to the coated wells and stimulated for 1 min at 37° C. with 5 μl of fMLP, 0.05 μM final concentration. After rapid washing, adherent cells were fixed in ice-cold 1.5% glutaraldehyde in PBS, and still images of adherent cells in 0.2 mm^2 fields were acquired al 20× phase contrast magnification, NA 0.40, with a charge-coupled device camera (ICD-42B; Ikegami) connected to an inverted microscope (IX50; Olympus). Image acquisition and computer-assisted enumeration of adherent cells were performed with ImageJ (National Institute of Health).
We then investigated the functional effect of TAT-ICD on integrin activation and mediated adhesion by chemoattractants. Static adhesion assays were performed as described in Example 2. […] Data are mean number of adherent cells in 5 experiments in triplicate.
To evaluate whether JAK2 mediates chemoattractant-induced adhesion of human monocytes to beta-2 integrin substrates human monocytes were treated control buffer or P1 or with the three JAK inhibitors. Briefly, human monocytes were treated with buffer (CTRL=control), or 40 μM P1 or P1-TKIP peptides, 100 μM AG490 or 200 μM WHI-P154 for 1 hour at 37° C. and stimulated with 50 nM fMLP for 60 sec.; data are mean and standard deviation (SD) of 6 experiments in triplicate.
Human primary monocytes were isolated from buffy coats from healthy donors and pre-incubated for 30 minutes at room temperature with our without 0.075 micromolar PTPX. Standard adhesion assays on ICAM-1 coated glass slides. Cell suspensions were added to the coated wells for 1 minute, stimulated for 1 minute at 37° C. with […] fMLP. Non-adherent cells were washed away and adherent cells were fixed in ice-cold 1.5% glutaraldehyde in PBS and adherent cells were counted using computer assisted automatic quantification. Data are from a representative experiment and are the mean and standard deviation of 24 measurements per condition (Table 35).

[3] = tested on: JAK2 (pYpY1007/1008); experiment: p-JAK2 ELISA on monocytes; type: cell-based, human; conditions: 1 hour, 50 nM fMLP 90 sec, CTRL 100
Text: JAK2 regulation by PTPRG as assessed through the high-throughput phospho-proteomics analysis evidenced that PTPRG activation (Example 4, Table 9 and 10) provides a useful example of the exploitation of this analysis system for identification of targets and unexpected indications/uses for known and novel agents that regulate the phoshoproteome. […] Furthermore, the capability of fMLP to trigger JAKs activation has never been observed. The results described in Example 4 unexpectedly implicate JAK2 de-phosphorylation by PTPRG as playing a role in the anti-adhesive role of PTPRG on monocytes. To test this system-generated hypothesis we first set out to define the role of JAK2 in fMLP-triggered rapid adhesion in monocytes. Time course experiments, either performed with ELISA assay or Western Blot. Briefly, purified human monocytes were treated with buffer (resting) or with 50 nM fMLP for the indicated times (Table 12), and the phosphorylation was assessed by p-Jak2 elisa and Western Blot analysis. The JAK2 activation was determined with Elisa Kit JAK2 (pYpY1007/1008) (Invitrogen). Briefly, cells were stimulated with agonist and lysed following manufacturer's protocol; levels of phospho-JAK2 were quantified (absorbance at 450 nm) with a micro-well plate reader (Victor™ X5 Multilabel Plate Reader, Perkin Elmer). For Western blot analysis, cells were lysed in ice-cold 1% Nonidet P-40 buffer, containing phosphatase inhibitors and complete protease inhibitor cocktail (Roche). Total cell lysates were quantified by Bradford assay (Bio-Rad). Equal amounts of total lysates or of isolated membranes (as described in Example 1) were subjected to 10% SDS-PAGE and then blotted. After incubation with anti-PTPRG, anti gp91^Phox, anti phospho-JAK2, anti JAK2 and HRP-linked secondary antibodies (GE Healthcare), immunoreactive bands were visualized by ECL detection (EMD Millipore). Intensities of band signals were quantified by densitometric analysis (Quantity One, Bio-Rad) by using ImageQuant Las4000. Data are mean value of three experiments; the relative ratio of the band intensity of phosphor-JAK2 was normalized to the level of JAK2 band intensities.
Briefly, p-JAK2 ELISA assay on human monocytes treated with buffer (CTRL=control), 50 μM P1-WD, P1 or P1-WD scrambled peptides (Table 17), or with buffer (CTRL=control), 0.5 uM TAT-ICD or 50 μM TAT peptide (Table 18) for 1 hour at 37° C. and stimulated with 50 nM fMLP for 90 sec. Shown are percentages of fold increases over the control; mean values of 3 experiments in triplicate.

[4] = 50 μM TAT peptides or 0.5 μM TAT-ICD, 1 hour at 37° C., CTRL 12
[5] = 50 μM TAT peptides or 0.5 μM TAT-ICD, 1 hour at 37° C., CTRL 22
[6] = 50 μM TAT peptides or 0.5 μM TAT-ICD, 1 hour at 37° C., CTRL 66
[7] = 0.5 uM TAT-ICD or 50 μM TAT peptide
[8] = 100 μM AG490, 40 μM P1 or P1-TKIP, 200 μM WHI-P154, 1 hour, CTRL 26
[9] = 100 μM AG490, 40 μM P1 or P1-TKIP, 200 μM WHI-P154, 1 hour, CTRL 34
[10] = 100 μM AG490, 40 μM P1 or P1-TKIP, 200 μM WHI-P154, 1 hour, CTRL 40
[11] = 50 μM P1-WD, P1 or P1-WD scrambled

Compound | rolling cells over total interacting cells, flow assay [1, 4] [%] | cells arrested 1 sec over total interacting cells, flow assay [1, 5] [%] | cells arrested 10 sec over total interacting cells, flow assay [1, 6] [%] | fMLP-triggered static adhesion to ICAM-1 ([2]; 0.5 μM) | fMLP-triggered static adhesion to ICAM-1 ([2]; 1 μM) | p-JAK2 ELISA, percentages of fold increases over the control [3, 7] [%] | cells arrested 10 sec over total interacting cells, flow assay [1, 8] [%] | cells arrested 1 sec over total interacting cells, flow assay [1, 9] [%] | rolling cells over total interacting cells, flow assay [1, 10] [%] | arrest 1 sec, flow assay [1] | arrest 10 sec, flow assay ([1]; CTRL 26) | rolling cells, flow assay [1] | fMLP-induced adhesion to ICAM-1 [2] [%] | p-JAK2 ELISA, percentages of fold increases over the control [3, 11] [%] | further results
TAT-ICD: fusion recombinant protein SEQ ID 5: PTPRG intracellular domain aa 797-1445 fused to 13 aa TAT sequence | 79 | 10 | 11 | 14 | 10 | 53 | – | – | – | – | – | – | – | – | fMLP-triggered static adhesion to ICAM-1 ([2]; 0.01 μM): 48; fMLP-triggered static adhesion to ICAM-1 ([2]; 0.05 μM): 36; fMLP-triggered static adhesion to ICAM-1 ([2]; 0.10 μM): 30
P1: Penetratin delivery peptide, 16 aa RQIKIWFQNRRMKWKK (SEQ ID 4), control [reference compound] | – | – | – | – | – | – | 30 | 26 | 44 | 32 | 30 | 38 | 101 | 95 | fMLP-triggered static adhesion to ICAM-1 ([2]; control peptide, concentration not given): 102
P1-WD: fusion Trojan peptide SEQ ID 3: Penetratin, glycine, PTPRG wedge domain aa 831-856; RQIKIWFQNRRMKWKKGKQFVKHIGELYSNNQHGFSEDFEEVQ (listed as Homo sapiens) | – | – | – | – | – | – | – | – | – | 9 | 11 | 80 | – | 51 | fMLP-triggered static adhesion to ICAM-1 ([2]; P1-WD 10 micromolar): 78; fMLP-triggered static adhesion to ICAM-1 ([2]; P1-WD 25 micromolar): 40; fMLP-triggered static adhesion to ICAM-1 ([2]; P1-WD 50 micromolar): 19
COc1cc2ncnc(Nc3ccc(O)c(Br)c3)c2cc1OC [WHI-P154] | – | – | – | – | – | – | 14 | 20 | 66 | – | – | – | 6.4 | – | –
N#C/C(=C/c1ccc(O)c(O)c1)C(=O)NCc1ccccc1 [AG490] | – | – | – | – | – | – | 10 | 20 | 70 | – | – | – | 23.5 | – | –
TAT (GRKKRRQRRRPPQ; listed as Homo sapiens) [reference compound] | 14 | 25 | 61 | 100 | 110 | 99 | – | – | – | – | – | – | – | – | –
